Test results: patent US20160287589A1, “SUBSTITUTED-IMIDAZOPYRIDAZINES” (BAYER PHARMA AKTIENGESELLSCHAFT, priority 2013, published 2016)

Assays:
MKNK1 [1] = biological target: T1, MKNK1 (Homo sapiens, UniProt Q9BUB5, T385D); assay: MKNK1 kinase high ATP assay (TR-FRET-based); type: biochemical; conditions: 2 mM ATP, 15 min preincubation
T1 construct: GST (N); purchased Carna Biosciences 02-145; host or cells: insect cells (baculovirus expression system)
Outline: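 TR-FRET read-out (anti-phospho-S6 Ser236 antibody, Eu/XL665) of biotin-peptide phosphorylation (0.06 μM) at high ATP (2 mM final). Enzyme was GST-MKNK1 full length, T344D, pre-bound to compound for 15 min before a 30 min reaction at 22 °C, pH 7.5. Inhibition scaled between no-inhibitor (0%) and no-enzyme (100%) wells.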

MKNK1 [2] = biological target: T1, MKNK1; assay: MKNK1 kinase assay (MKNK1 TR-FRET assay); type: biochemical; conditions: 10 μM ATP, 15 min preincubation

T1 sequence (Q9BUB5 1-424 isoform Q9BUB5-2 T344D): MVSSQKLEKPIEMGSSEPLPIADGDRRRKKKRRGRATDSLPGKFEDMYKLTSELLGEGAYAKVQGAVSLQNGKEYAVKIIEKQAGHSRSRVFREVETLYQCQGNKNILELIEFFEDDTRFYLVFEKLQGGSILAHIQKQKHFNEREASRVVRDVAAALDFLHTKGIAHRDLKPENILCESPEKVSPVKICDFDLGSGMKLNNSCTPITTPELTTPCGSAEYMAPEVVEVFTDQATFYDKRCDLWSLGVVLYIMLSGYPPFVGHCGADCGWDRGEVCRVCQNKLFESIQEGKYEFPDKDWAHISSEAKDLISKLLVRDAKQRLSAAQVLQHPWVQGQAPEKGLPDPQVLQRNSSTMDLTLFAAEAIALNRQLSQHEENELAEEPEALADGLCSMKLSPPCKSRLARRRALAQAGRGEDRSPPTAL

CCN(CCOC(C)(C)C)c1nccc2oc(-c3cnc4ccc(OC[C@H](C)N)nn34)cc12 [III-26, 2-(6-{[(2S)-2-Aminopropyl]oxy}imidazo[1,2-b]pyridazin-3-yl)-N-(2-tert-butoxyethyl)-N-ethylfuro[3,2-c]pyridin-4-amine]
IC50 (MKNK1 [1]; Table 2c): 0.8 nM | IC50 (MKNK1 [2]; Table 1c): 1.7 nM

CN(CCCN1CCCC1)c1nccc2oc(-c3cnc4ccc(OCCCS(C)(=O)=O)nn34)cc12 [III-47, N-methyl-2-{6-[3-(methylsulfonyl)propoxy]imidazo[1,2-b]pyridazin-3-yl}-N-[3-(pyrrolidin-1-yl)propyl]furo[3,2-c]pyridin-4-amine]
IC50 (MKNK1 [1]; Table 2c): 21.2 nM | IC50 (MKNK1 [2]; Table 1c): 13.6 nM

CC1(C)CN(c2nccc3oc(-c4cnc5ccc(O[C@H]6C[C@H](N)C6)nn45)cc23)CCO1 [III-129, trans-3-({3-[4-(2,2-dimethylmorpholin-4-yl)furo[3,2-c]pyridin-2-yl]imidazo[1,2-b]pyridazin-6-yl}oxy)cyclobutanamine]
IC50 (MKNK1 [1]; Table 2c): 14.1 nM | IC50 (MKNK1 [2]; Table 1c): 16.8 nM

O=C1CNC[C@H](COc2ccc3ncc(-c4cc5c(N6CCOCC6)nccc5o4)n3n2)N1 [III-89, (6R)-6-[({3-[4-(Morpholin-4-yl)furo[3,2-c]pyridin-2-yl]imidazo[1,2-b]pyridazin-6-yl}oxy)methyl]piperazin-2-one]
IC50 (MKNK1 [1]; Table 2c): 8 nM | IC50 (MKNK1 [2]; Table 1c): 2.9 nM

COC[C@@H]1CCCN1c1nccc2oc(-c3cnc4ccc(OC[C@H]5CCC(=O)N5)nn34)cc12 [III-83, (5R)-5-{[(3-{4-[(2S)-2-(Methoxymethyl)pyrrolidin-1-yl]furo[3,2-c]pyridin-2-yl}imidazo[1,2-b]pyridazin-6-yl)oxy]methyl}pyrrolidin-2-one]
IC50 (MKNK1 [1]; Table 2c): 19.1 nM | IC50 (MKNK1 [2]; Table 1c): 11.6 nM

FC(F)(F)COc1ccc2ncc(-c3cc4c(N5CCNCC5)cccc4o3)n2n1 [II-56, 3-[4-(piperazin-1-yl)-1-benzofuran-2-yl]-6-(2,2,2-trifluoroethoxy)im-idazo[1,2-b]pyridazine]
IC50 (MKNK1 [1]; Table 2b): 3.1 nM | IC50 (MKNK1 [2]; Table 1b): 5.4 nM

CCNc1nccc2oc(-c3cnc4ccc(OC[C@H]5CCC(=O)N5)nn34)cc12 [IV-14, (5R)-5-[({3-[4-(Ethylamino)furo[3,2-c]pyridin-2-yl]imidazo[1,2-b]pyridazin-6-yl}oxy)methyl]pyrrolidin-2-one]
IC50 (MKNK1 [1]; Table 2d): 2 nM | IC50 (MKNK1 [2]; Table 1d): 1 nM

O=C1CC[C@H](COc2ccc3ncc(-c4cc5c(N6CCNCC6)nccc5o4)n3n2)N1 [III-71, (5R)-5-[({3-[4-(Piperazin-1-yl)furo[3,2-c]pyridin-2-yl]imidazo[1,2-b]pyridazin-6-yl}oxy)methyl]pyrrolidin-2-one]
IC50 (MKNK1 [1]; Table 2c): 1.4 nM | IC50 (MKNK1 [2]; Table 1c): 2 nM

C[C@H](N)COc1ccc2ncc(-c3cc4c(N(C)CCCO)nccc4o3)n2n1 [III-20, 3-{[2-(6-{[(2S)-2-Aminopropyl]oxy}imidazo[1,2-b]pyridazin-3-yl)furo[3,2-c]pyridin-4-yl](methyl)amino}propan-1-ol]
IC50 (MKNK1 [1]; Table 2c): 10.5 nM | IC50 (MKNK1 [2]; Table 1c): 3.9 nM

c1cc(N2CCOCC2)c2cc(-c3cnc4ccc(OC[C@H]5CNCCO5)nn34)oc2c1 [II-1, 3-[4-(Morpholin-4-yl)-1-benzofuran-2-yl]-6-[(2R)-morpholin-2-ylmethoxy]-imidazo[1,2-b]pyridazine]
IC50 (MKNK1 [1]; Table 2b): 20 nM | IC50 (MKNK1 [2]; Table 1b): 8.5 nM

C[C@H](N)COc1ccc2ncc(-c3cc4c(N5CCN(c6ccccc6)CC5)cccc4o3)n2n1 [II-15, (2S)-1-({3-[4-(4-Phenylpiperazin-1-yl)-1-benzofuran-2-yl]imidazo[1,2-b]-pyridazin-6-yl}oxy)propan-2-amine]
IC50 (MKNK1 [1]; Table 2b): 137 nM | IC50 (MKNK1 [2]; Table 1b): 59 nM

CN1CCN(c2nccc3oc(-c4cnc5ccc(OCCCS(C)(=O)=O)nn45)cc23)CC1 [III-43, 3-[4-(4-Methylpiperazin-1-yl)furo[3,2-c]pyridin-2-yl]-6-[3-(methylsulfonyl)-propoxy]imidazo[1,2-b]pyridazine]
IC50 (MKNK1 [1]; Table 2c): 5.3 nM | IC50 (MKNK1 [2]; Table 1c): 5.7 nM

COCCN(C)c1nccc2oc(-c3cnc4ccc(OC[C@H]5CCC(=O)N5)nn34)cc12 [III-81, (5R)-5-{[(3-{4-[(2-Methoxyethyl)(methyl)amino]furo[3,2-c]pyridin-2-yl}imidazo[1,2-b]pyridazin-6-yl)oxy]methyl}pyrrolidin-2-one]
IC50 (MKNK1 [1]; Table 2c): 0.5 nM | IC50 (MKNK1 [2]; Table 1c): 0.3 nM

COC[C@H]1CCCN1c1cccc2oc(-c3cnc4ccc(OCCCS(C)(=O)=NC#N)nn34)cc12 (mixture of isomers) [II-25, [{3-[(3-{4-[2-(Methoxymethyl)pyrrolidin-1-yl]-1-benzofuran-2-yl}imidazo-[1,2-b]pyridazin-6-yl)oxy]propyl}(methyl)oxido-λ^6-sulfanylidene]cyanamide]
IC50 (MKNK1 [1]; Table 2b): 2.7 nM | IC50 (MKNK1 [2]; Table 1b): 2.4 nM

CC(C)CC(=O)NCCOc1ccc2ncc(-c3cc4ccccc4o3)n2n1 [Example I-72, N-(2-{[3-(1-Benzofuran-2-yl)imidazo[1,2-b]-pyridazin-6-yl]oxy}ethyl)-3-methylbutanamide]
IC50 (MKNK1 [1]; Table 2a): 14.7 nM | IC50 (MKNK1 [2]; Table 1a): 4.8 nM

CCN(CCOC)c1nccc2oc(-c3cnc4ccc(OCCCS(C)(=O)=O)nn34)cc12 [III-50, N-Ethyl-N-(2-methoxyethyl)-2-{6-[3-(methylsulfonyl)propoxy]imidazo[1,2-b]pyridazin-3-yl}furo[3,2-c]pyridin-4-amine]
IC50 (MKNK1 [1]; Table 2c): 0.5 nM | IC50 (MKNK1 [2]; Table 1c): 1.4 nM

O=C1CCC(CCOc2ccc3ncc(-c4cc5ccccc5o4)n3n2)N1 (stereo not shown) [Example I-26, 5-(2-{[3-(1-Benzofuran-2-yl)imidazo[1,2-b]pyridazin-6-yl]oxy}ethyl)pyrrolidin-2-one]
IC50 (MKNK1 [1]; Table 2a): 23 nM | IC50 (MKNK1 [2]; Table 1a): 9 nM

C[C@H]1CN(c2cccc3oc(-c4cnc5ccc(OC[C@@H]6CCC(=O)N6)nn45)cc23)CCO1 [II-68, (5S)-5-{[(3-{4-[(2S)-2-methylmorpholin-4-yl]-1-benzofuran-2-yl}imidazo[1,2-b]pyridazin-6-yl)oxy]methyl}pyrrolidin-2-one]
IC50 (MKNK1 [1]; Table 2b): 30.4 nM | IC50 (MKNK1 [2]; Table 1b): 23.2 nM

CCN(CCOC)c1nccc2oc(-c3cnc4ccc(OCCC[S@@](C)(=O)=NC#N)nn34)cc12 [III-137, [{3-[(3-{4-[ethyl(2-methoxyethyl)ami-no]furo[3,2-c]pyridin-2-yl}imidazo[1,2-b]pyridazin-6-yl)oxy]propyl}(methyl)oxido-λ^6-sulfanylidene]cyanamide]
IC50 (MKNK1 [1]; Table 2c): 0.6 nM | IC50 (MKNK1 [2]; Table 1c): 2.7 nM

CC(=O)N1CCC[C@H]1CCOc1ccc2ncc(-c3cc4ccccc4o3)n2n1 [Example I-2, 1-[(2S)-2-(2-{[3-(1-Benzofuran-2-yl)imidazo[1,2-b]pyridazin-6-yl]oxy}ethyl)-pyrrolidin-1-yl]ethanone]
IC50 (MKNK1 [1]; Table 2a): 3.1 nM | IC50 (MKNK1 [2]; Table 1a): 1.8 nM

COC[C@@H]1CCCN1c1nccc2oc(-c3cnc4ccc(OC[C@H](C)N)nn34)cc12 [III-27, (2S)-1-[(3-{4-[(2S)-2-(Methoxymethyl)pyrrolidin-1-yl]furo[3,2-c]pyridin-2-yl}imidazo[1,2-b]pyridazin-6-yl)oxy]propan-2-amine]
IC50 (MKNK1 [1]; Table 2c): 97.5 nM | IC50 (MKNK1 [2]; Table 1c): 31.1 nM

COc1nccc2oc(-c3cnc4ccc(OC[C@H]5CN(C(=O)C(C)(C)C)CCO5)nn34)cc12 [IV-11, 1-[(2R)-2-({[3-(4-Methoxyfuro[3,2-c]pyridin-2-yl)imidazo[1,2-b]pyridazin-6-yl]oxy}-methyl)morpholin-4-yl]-2,2-dimethylpropan-1-one]
IC50 (MKNK1 [1]; Table 2d): 25 nM | IC50 (MKNK1 [2]; Table 1d): 6 nM

COC[C@H]1CCCN1c1nccc2oc(-c3cnc4ccc(OC[C@H]5CCC(=O)N5)nn34)cc12 [III-78, (5R)-5-{[(3-{4-[(2R)-2-(Methoxymethyl)pyrrolidin-1-yl]furo[3,2-c]pyridin-2-yl}imidazo[1,2-b]pyridazin-6-yl)oxy]methyl}pyrrolidin-2-one]
IC50 (MKNK1 [1]; Table 2c): 1.2 nM | IC50 (MKNK1 [2]; Table 1c): 0.2 nM

COCCN(C)c1nccc2oc(-c3cnc4ccc(O[C@H](C)CN)nn34)cc12 [III-34, 2-(6-{[(2R)-1-Aminopropan-2-yl]oxy}imidazo[1,2-b]pyridazin-3-yl)-N-(2-methoxyethyl)-N-methylfuro[3,2-c]pyridin-4-amine]
IC50 (MKNK1 [1]; Table 2c): 7.4 nM | IC50 (MKNK1 [2]; Table 1c): 3.5 nM

CC(C)(C)OC(=O)N1CCN(c2nccc3oc(-c4cnc5ccc(OCCCS(C)(=O)=O)nn45)cc23)CC1 [III-49, tert-Butyl 4-(2-{6-[3-(methylsulfonyl)propoxy]imidazo[1,2-b]pyridazin-3-yl}furo[3,2-c]pyridin-4-yl)piperazine-1-carboxylate]
IC50 (MKNK1 [1]; Table 2c): 38.5 nM | IC50 (MKNK1 [2]; Table 1c): 21.3 nM

O=C(N[C@H]1C[C@H](Oc2ccc3ncc(-c4cc5ccccc5o4)n3n2)C1)C1CC1 [Example I-5, N-(trans-3-{[3-(1-Benzofuran-2-yl)imidazo[1,2-b]pyridazin-6-yl]oxy}cyclobutyl)-cyclopropanecarboxamide]
IC50 (MKNK1 [1]; Table 2a): 8.9 nM | IC50 (MKNK1 [2]; Table 1a): 5.3 nM

CC1(C)CN(c2nccc3oc(-c4cnc5ccc(OCCCS(C)(=O)=O)nn45)cc23)CCO1 [III-135, 3-[4-(2,2-dimethylmorpholin-4-yl)furo[3,2-c]pyridin-2-yl]-6-[3-(methylsulfonyl)propoxy] imidazo[1,2-b]pyridazine]
IC50 (MKNK1 [1]; Table 2c): 12.9 nM | IC50 (MKNK1 [2]; Table 1c): 30.1 nM

O=C1CC[C@H](COc2ccc3ncc(-c4cc5c(N6CCN(c7ccccc7)CC6)nccc5o4)n3n2)N1 [III-76, (5R)-5-[({3-[4-(4-Phenylpiperazin-1-yl)furo[3,2-c]pyridin-2-yl]imidazo[1,2-b]pyridazin-6-yl}oxy)methyl]pyrrolidin-2-one]
IC50 (MKNK1 [1]; Table 2c): 6 nM | IC50 (MKNK1 [2]; Table 1c): 3.5 nM

C[C@H](N)COc1ccc2ncc(-c3cc4c(N(C)CCCN5CCCC5)nccc4o3)n2n1 [III-12, 2-(6-{[(2S)-2-Aminopropyl]oxy}imidazo[1,2-b]pyridazin-3-yl)-N-methyl-N-[3-(pyrrolidin-1-yl)propyl]furo[3,2-c]pyridin-4-amine]
IC50 (MKNK1 [1]; Table 2c): 43.1 nM | IC50 (MKNK1 [2]; Table 1c): 8.6 nM
